The test has as its system FL9 T cells. The test can be described thus: Activation (CD69) of FL9 TCR+ hybridoma / FL9 T cells by peptide-loaded EL4 (Qa-1+) cells. The class given is cell-based, mouse. Particulars: 0, 1, 3 and 10 μg/ml, compared with cognate FL9 self-peptide. As to the method: FIG. 4 provides a graphical representation showing a Qa-1-peptide yeast library, which identified peptides with superagonistic activity. FL9 T cells were stimulated with EL4 (Qa-1+) cells in the presence of surrogate peptides selected from peptide-Qa-1 yeast library for 3 days. Activation status of FL9 T cells was measured by CD69 expression.
FIG. 58A-C and FIG. 58D-E provides representation showing identification of superagonists for FL9 T cells. FIG. 58(A) provides a schematic showing a library composed of 96 FL9 peptide variants (crude peptides) was generated by aa mutagenesis at the Qa-1 anchoring positions (p2, p3, p6, p^7 and p9). FL9 TCR^+ hybridomas were incubated with EL4 cells (Qa-1^+) loaded with each FL9 peptide variant for 12 hrs and CD69 expression and TCR downregulation were measured as an indication of TCR stimulation. […] Expression of Vα3.2 and Vβ5 on EL4 cells (trogocytosis) was measured (right). […] Dose-dependent activation of FL9 T cells was measured by culturing FL9.2 T cells with EL4 (Qa-1^+) at various concentrations of indicated peptides (0, 1, 3 and 10 μg/ml). […] Six days later, proliferation of FL9.2 T cells (CD45.2^+Vα3.2^+VD5^+) was measured by CFSE dilution (left). CD45.1^+ B6 mice were immunized with Ova323-339 peptide in CFA on day 6 and the frequency of I-A^b/Ova323-339 Tet^+ CD4 cells in activated (CD44^+) CD4 cells was analyzed on day 14. […]

Entries after “also recorded” stand apart in the source; their conditions may differ.

In the case of “FYAEATLML [FL9-68, FL9 peptide variant containing a P→L substitution at pos 7; superagonist for CD8 Treg]”, the “stimulatory activity for FL9 T cells / FL9.2 and FL9.8 TCRs (CD69 expression)” value is “superior ability to activate FL9 T cells; also recorded: superior ability to stimulate FL9 T cells; also recorded: markedly enhanced dose-dependent stimulatory activity; also recorded: significantly enhanced stimulating activity in vitro and in vivo; also recorded: significantly enhanced stimulatory activity in vitro and in vivo”.

Values taken from patent publication US20240415919A1, “COMPOSITIONS AND METHODS FOR TREATMENT OF AUTOIMMUNE DISORDERS AND CANCER” (Dana-Farber Cancer Institute, Inc., priority 2021, published 2024).
